Test results as given in ChEMBL document CHEMBL1250530, “Identification of organoselenium compounds that possess chemopreventive properties in human prostate cancer LNCaP cells” (Bioorg Med Chem, 2010).
Active and inactive are the calls of the source. The calls are words filed in the database; no cut-off is given here.

Experiments:
[1] = molecular target: T1, Nuclear factor erythroid 2-related factor 2 (Homo sapiens) (UniProt Q16236); assay: Induction of NRF2-mediated ARE enhancer activity in hormone-sensitive human LNCaP cells transfected with pGL3-ARE-TK-luc at 5 uM after 24 hrs by luciferase assay relative to control; type: functional, cell-based
T1 sequence (whole entry): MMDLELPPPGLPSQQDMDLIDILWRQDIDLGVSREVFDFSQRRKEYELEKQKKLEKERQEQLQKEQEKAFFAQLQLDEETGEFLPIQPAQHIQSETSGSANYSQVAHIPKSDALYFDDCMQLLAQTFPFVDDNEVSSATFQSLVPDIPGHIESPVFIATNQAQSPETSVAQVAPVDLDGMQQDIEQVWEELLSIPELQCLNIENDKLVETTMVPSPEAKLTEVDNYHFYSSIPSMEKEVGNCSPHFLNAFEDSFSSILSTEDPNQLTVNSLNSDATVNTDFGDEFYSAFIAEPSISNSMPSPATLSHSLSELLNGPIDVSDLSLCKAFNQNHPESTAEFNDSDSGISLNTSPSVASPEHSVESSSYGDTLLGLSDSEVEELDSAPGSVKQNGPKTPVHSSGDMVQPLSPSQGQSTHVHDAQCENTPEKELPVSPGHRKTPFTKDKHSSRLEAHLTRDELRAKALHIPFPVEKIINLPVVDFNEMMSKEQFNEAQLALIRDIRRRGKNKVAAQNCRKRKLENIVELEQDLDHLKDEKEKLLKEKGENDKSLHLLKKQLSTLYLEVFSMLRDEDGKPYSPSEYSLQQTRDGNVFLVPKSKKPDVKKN

[2] = molecular target: T1, Nuclear factor erythroid 2-related factor 2 (Homo sapiens); assay: Increase of NRF2-mediated HO-1 expression in hormone-refractory human DU145 cells at 5 uM after 24 hrs by Western blotting; type: functional, cell-based; conditions: DU-145
LNCaP [3] = assay: Cytotoxicity against human LNCAP cells assessed as reduction of cells count at 5 uM after 24 to 48 hrs by trypan blue dye exclusion assay; type: functional, cell-based
LNCaP [4] = assay: Growth inhibition of human LNCAP cells at 5 uM after 48 hrs by trypan blue dye exclusion assay in presence of 5 uM HO-1 inhibitor Zn-protoporphyrin; type: functional, cell-based
[5] = molecular target: T1, Nuclear factor erythroid 2-related factor 2 (Homo sapiens); assay: Increase of NRF2-mediated NQO-1 expression in hormone-refractory human DU145 cells at 5 uM after 24 hrs by Western blotting; type: functional, cell-based; conditions: DU-145
[6] = molecular target: T1, Nuclear factor erythroid 2-related factor 2 (Homo sapiens); assay: Induction of NRF2-mediated ARE enhancer activity in hormone-refractory human DU145 cells transfected with pGL3-ARE-TK-luc at 5 uM after 24 hrs by luciferase assay relative to control; type: functional, cell-based; conditions: DU-145
[7] = molecular target: T1, Nuclear factor erythroid 2-related factor 2 (Homo sapiens); assay: Increase of NRF2-mediated HO-1 expression in human LNCaP cells after 24 hrs by Western blotting; type: functional, cell-based
LNCaP [8] = assay: Decrease in cyclin D1 expression in human LNCAP cells at 5 uM after 48 hrs by Western blotting; type: functional, cell-based
LNCaP [9] = assay: Antioxidant activity in human LNCAP cells assessed as decrease in intracellular ROS level at 5 uM after 12 hrs by fluorescence microplate reader assay; type: functional, cell-based
[10] = molecular target: T1, Nuclear factor erythroid 2-related factor 2 (Homo sapiens); assay: Increase of NRF2-mediated HO-1 expression in human LNCaP cells at 5 uM by Western blotting; type: functional, cell-based; conditions: TDE = time-dependent effect
LNCaP [11] = assay: Induction of NRF2 dominant-negative mutant-mediated ARE enhancer activity in human LNCaP cells transfected with pGL3-ARE-TK-luc at 5 uM after 24 hrs by luciferase assay relative to control; type: cell-based
LNCaP [12] = assay: Effect on p21 expression in human LNCAP cells at 5 uM after 48 hrs by Western blotting; type: functional, cell-based
LNCaP [13] = assay: Decrease in cyclin B1 expression in human LNCAP cells at 5 uM after 48 hrs by Western blotting; type: functional, cell-based
LNCaP [14] = assay: Effect on ERK phosphorylation in human LNCAP cells; type: cell-based
[15] = molecular target: T1, Nuclear factor erythroid 2-related factor 2 (Homo sapiens); assay: Increase of NRF2-mediated HO-1 expression in hormone-refractory human MDA-MB-231 cells after 24 hrs by Western blotting; type: functional, cell-based
[16] = molecular target: T1, Nuclear factor erythroid 2-related factor 2 (Homo sapiens); assay: Increase of NRF2-mediated HO-1 expression in hormone-refractory human MCF7 cells after 24 hrs by Western blotting; type: functional, cell-based
[17] = molecular target: c-Jun N-terminal kinase, JNK (Homo sapiens) (UniProt P45983+P53779+P45984); assay: Effect on JNK phosphorylation in human LNCAP cells; type: cell-based
LNCaP [18] = assay: Antioxidant activity in human LNCAP cells assessed as decrease in intracellular ROS level at 5 uM after 5 mins by fluorescence microplate reader assay; type: functional, cell-based
LNCaP [19] = assay: Induction of morphological changes in human LNCAP cells assessed as appearance of flattened and enlarged cells at 5 uM after 24 to 48 hrs; type: functional, cell-based
[20] = molecular target: T1, Nuclear factor erythroid 2-related factor 2 (Homo sapiens); assay: Increase of NRF2-mediated HO-1 expression in hormone-refractory human PC3 cells at 5 uM after 24 hrs by Western blotting; type: functional, cell-based; conditions: PC-3
[21] = molecular target: T1, Nuclear factor erythroid 2-related factor 2 (Homo sapiens); assay: Increase of NRF2-mediated NQO-1 expression in human LNCaP cells at 5 uM after 24 hrs by Western blotting; type: functional, cell-based
[22] = molecular target: T1, Nuclear factor erythroid 2-related factor 2 (Homo sapiens); assay: Induction of nuclear translocation of NRF2 in human LNCaP cells at 5 uM after 0.5 hrs by Western blotting; type: functional, cell-based
[23] = molecular target: RAC-alpha serine/threonine-protein kinase (Homo sapiens) (UniProt P31749); assay: Effect on c-Akt phosphorylation in human LNCAP cells; type: cell-based
Sequence of RAC-alpha serine/threonine-protein kinase (Homo sapiens) (P31749 whole entry): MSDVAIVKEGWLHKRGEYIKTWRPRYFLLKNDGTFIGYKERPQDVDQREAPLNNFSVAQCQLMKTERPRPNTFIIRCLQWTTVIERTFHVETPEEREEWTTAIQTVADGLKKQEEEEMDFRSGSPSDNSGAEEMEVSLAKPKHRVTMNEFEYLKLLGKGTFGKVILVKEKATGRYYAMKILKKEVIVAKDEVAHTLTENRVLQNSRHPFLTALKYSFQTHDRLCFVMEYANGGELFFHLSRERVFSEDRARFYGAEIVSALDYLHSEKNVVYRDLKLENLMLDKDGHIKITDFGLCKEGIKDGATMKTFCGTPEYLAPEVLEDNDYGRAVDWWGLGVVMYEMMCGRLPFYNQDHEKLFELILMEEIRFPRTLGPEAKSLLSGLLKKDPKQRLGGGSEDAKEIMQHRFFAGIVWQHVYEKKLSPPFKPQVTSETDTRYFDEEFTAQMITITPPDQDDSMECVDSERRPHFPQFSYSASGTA

[24] = molecular target: T1, Nuclear factor erythroid 2-related factor 2 (Homo sapiens); assay: Induction of nuclear translocation of NRF2 in human LNCaP cells at 5 uM after 6 hrs by Western blotting; type: functional, cell-based
[25] = molecular target: T1, Nuclear factor erythroid 2-related factor 2 (Homo sapiens); assay: Induction of NRF2-mediated ARE enhancer activity in hormone-refractory human PC3 cells transfected with pGL3-ARE-TK-luc at 5 uM after 24 hrs by luciferase assay relative to control; type: functional, cell-based; conditions: PC-3
[26] = molecular target: MAP kinase p38 (Homo sapiens) (UniProt O15264+Q15759+Q16539+P53778); assay: Effect on p38 phosphorylation in human LNCAP cells; type: cell-based
LNCaP [27] = assay: Induction of apoptosis in human LNCAP cells at 5 uM by Hoechst 33342 staining; type: functional, cell-based
[28] = molecular target: T1, Nuclear factor erythroid 2-related factor 2 (Homo sapiens); assay: Increase of NRF2-mediated HO-1 expression in human LNCaP cells at 5 uM after 24 hrs by Western blotting; type: functional, cell-based
LNCaP [29] = assay: Growth inhibition of human LNCAP cells transfected with HO-1 siRNA at 5 uM after 72 hrs by trypan blue dye exclusion assay; type: functional, cell-based
LNCaP [30] = assay: Antioxidant activity in human LNCAP cells assessed as decrease in intracellular ROS level at 5 uM after 1 hr by fluorescence microplate reader assay; type: functional, cell-based
[31] = molecular target: T1, Nuclear factor erythroid 2-related factor 2 (Homo sapiens); assay: Increase of NRF2-mediated NQO-1 expression in hormone-refractory human PC3 cells at 5 uM after 24 hrs by Western blotting; type: functional, cell-based; conditions: PC-3
[32] = molecular target: T1, Nuclear factor erythroid 2-related factor 2 (Homo sapiens); assay: Induction of nuclear translocation of NRF2 in human LNCaP cells at 5 uM after 1 hr by Western blotting; type: functional, cell-based

Row | Activity [1] | Activity [2] | Activity [5] | fold change (FC) [6] | Activity [7] | Activity [10] | Activity [15] | Activity [16] | Activity [17] | Activity [20] | Compound | Activity (LNCaP [3]) | growth inhibition (GI) (LNCaP [4]) | inhibition (LNCaP [8]) | inhibition (LNCaP [9]) | Activity (LNCaP [11]) | Activity (LNCaP [12]) | inhibition (LNCaP [13]) | Activity (LNCaP [14]) | inhibition (LNCaP [18]) | Activity (LNCaP [19]) | other results
1 | Active | – | – | – | – | – | – | – | – | – | C[C@@H](O[Si](C)(C)C(C)(C)C)[C@H]1C(=O)N2/C(=N/c3ccc4ccccc4c3)[Se]/C(=C/I)C[C@H]12 | – | – | – | – | – | – | – | – | – | – | –
2 | – | Active | Active | < 2 | Dose-dependent effect | tde | Active | Active | inactive | Active | C[C@@H](O[Si](C)(C)C(C)(C)C)[C@H]1C(=O)N2/C(=N/Cc3ccccc3)[Se]/C(=C/I)C[C@H]12 | Active | Active | Active | Active | inactive | inactive | Active | inactive | Active | Active | Activity [21]: Active; Activity [22]: Active; Activity [23]: inactive; Activity [24]: Active; fold change (FC) [25]: < 2; fold change (FC) [1]: 6; Activity [26]: inactive; Activity (LNCaP [27]): inactive; Activity [28]: Active; growth inhibition (GI) (LNCaP [29]): Active; inhibition (LNCaP [30]): Active; Activity [31]: Active
3 | Active | – | – | – | – | – | – | – | – | – | C[C@@H](O[Si](C)(C)C(C)(C)C)[C@H]1C(=O)N2/C(=N/c3ccccc3)[Se]/C(=C/I)C[C@H]12 | – | – | – | – | – | – | – | – | – | – | –
4 | – | Active | Active | < 2 | Dose-dependent effect | tde | Active | Active | inactive | Active | C[C@@H](O[Si](C)(C)C(C)(C)C)[C@H]1C(=O)N2/C(=N/C3CCCCC3)[Se]/C(=C/I)C[C@H]12 | Active | Active | Active | Active | inactive | inactive | Active | inactive | Active | Active | Activity [32]: Active; Activity [21]: Active; Activity [23]: inactive; Activity [24]: Active; fold change (FC) [25]: < 2; fold change (FC) [1]: 6; Activity [26]: inactive; Activity (LNCaP [27]): inactive; Activity [28]: Active; growth inhibition (GI) (LNCaP [29]): Active; inhibition (LNCaP [30]): Active; Activity [31]: Active
